In patent US8871934B2, “Fluorene compound and pharmaceutical use thereof” (Japan Tobacco Inc., priority 2008, dated 2014):

Target: human PDHK2 (hPDHK2) (Homo sapiens (Human), UniProt Q15119)
Test: Inhibitory action of PDHK activity in vitro (kinase reaction, residual PDH activity measured)
Format: biochemical
Details: PDHK inhibitory activity, class symbol of IC50

SMILES | IC50 [nM]
OC1(C(F)(F)F)c2ccccc2-c2ccc(-c3ccccc3Cl)cc21 (stereo not shown) [compound 150] | > 1000
Cc1ccccc1-c1ccc2c(c1)C(O)(C(F)(F)F)c1ccccc1-2 (stereo not shown) [compound 151] | > 1000
COC(=O)c1cccc(-c2ccc3c(c2)C(O)(C(F)(F)F)c2ccccc2-3)c1 (stereo not shown) [compound 154] | 100 to 1000
O=C(O)c1cccc(-c2ccc3c(c2)C(O)(C(F)(F)F)c2ccccc2-3)c1 (stereo not shown) [compound 155] | 100 to 1000
NC(=O)c1cccc(-c2ccc3c(c2)C(O)(C(F)(F)F)c2ccccc2-3)c1 (stereo not shown) [compound 156] | 100 to 1000
CNC(=O)c1cccc(-c2ccc3c(c2)C(O)(C(F)(F)F)c2ccccc2-3)c1 (stereo not shown) [compound 157] | 100 to 1000
CN(C)C(=O)c1cccc(-c2ccc3c(c2)C(O)(C(F)(F)F)c2ccccc2-3)c1 (stereo not shown) [compound 158] | 100 to 1000
OC1(C(F)(F)F)c2ccccc2-c2c(Cl)cc(-c3ccccc3)cc21 (stereo not shown) [compound 159] | 100 to 1000
OC1(C(F)(F)F)c2ccccc2-c2ccc(N3CCCC3)cc21 (stereo not shown) [compound 160] | > 1000
OC1(C(F)(F)F)c2ccccc2-c2ccc(N3CCOCC3)cc21 (stereo not shown) [compound 161] | > 1000
CN1CCN(c2ccc3c(c2)C(O)(C(F)(F)F)c2ccccc2-3)CC1 (stereo not shown) [compound 162] | > 1000
CC(C)(C)OC(=O)N1CCN(c2ccc3c(c2)C(O)(C(F)(F)F)c2ccccc2-3)CC1 (stereo not shown) [compound 163] | 100 to 1000
OC1(C(F)(F)F)c2ccccc2-c2ccc(N3CCNCC3)cc21 (stereo not shown) [compound 164] | > 1000
CC(=O)N1CCN(c2ccc3c(c2)C(O)(C(F)(F)F)c2ccccc2-3)CC1 (stereo not shown) [compound 165] | 100 to 1000
OC1(C(F)(F)F)c2ccccc2-c2ccc(Nc3ccccc3)cc21 (stereo not shown) [compound 166] | > 1000
COC(=O)C1CCCN1C(=O)c1ccc2c(c1)C(O)(C(F)(F)F)c1ccccc1-2 (stereo not shown) [compound 167] | > 1000
O=C(O)C1CCCN1C(=O)c1ccc2c(c1)C(O)(C(F)(F)F)c1ccccc1-2 (stereo not shown) [compound 168] | > 1000
OC1(C(F)(F)F)c2ccccc2-c2ccc(C3CCCCC3)cc21 (stereo not shown) [compound 169] | > 1000
COc1ccccc1-c1ccc2c(c1)C(O)(C(F)(F)F)c1ccccc1-2 (stereo not shown) [compound 170] | > 1000
OC1(C(F)(F)F)c2ccccc2-c2ccc(-c3ccc(F)cc3)cc21 (stereo not shown) [compound 171] | 100 to 1000
COc1ccc(-c2ccc3c(c2)C(O)(C(F)(F)F)c2ccccc2-3)cc1 (stereo not shown) [compound 172] | 100 to 1000
CCOC(=O)c1ccccc1-c1ccc2c(c1)C(O)(C(F)(F)F)c1ccccc1-2 (stereo not shown) [compound 173] | > 1000
NC(=O)c1cc(C(=O)N2CCC2)cc2c1-c1ccccc1C2(O)C(F)(F)F (stereo not shown) [compound 174] | < 100
CCOC(=O)c1ccc(-c2ccc3c(c2)C(O)(C(F)(F)F)c2ccccc2-3)cc1 (stereo not shown) [compound 175] | 100 to 1000
NC(=O)C1CCCN1C(=O)c1ccc2c(c1)C(O)(C(F)(F)F)c1ccccc1-2 (stereo not shown) [compound 176] | > 1000

SMILES | IC50 [nM]
CNC(=O)C1CCCN1C(=O)c1ccc2c(c1)C(O)(C(F)(F)F)c1ccccc1-2 (stereo not shown) [compound 177] | > 1000
CN(C)C(=O)C1CCCN1C(=O)c1ccc2c(c1)C(O)(C(F)(F)F)c1ccccc1-2 (stereo not shown) [compound 178] | > 1000
OC1(C(F)(F)F)c2ccccc2-c2ccc(-c3ccc(Cl)cc3)cc21 (stereo not shown) [compound 179] | > 1000
O=C(O)c1ccccc1-c1ccc2c(c1)C(O)(C(F)(F)F)c1ccccc1-2 (stereo not shown) [compound 180] | > 1000
Cc1ccc(-c2ccc3c(c2)C(O)(C(F)(F)F)c2ccccc2-3)cc1 (stereo not shown) [compound 181] | > 1000
NC(=O)c1ccccc1-c1ccc2c(c1)C(O)(C(F)(F)F)c1ccccc1-2 (stereo not shown) [compound 182] | > 1000
CNC(=O)c1ccccc1-c1ccc2c(c1)C(O)(C(F)(F)F)c1ccccc1-2 (stereo not shown) [compound 183] | > 1000
CN(C)C(=O)c1ccccc1-c1ccc2c(c1)C(O)(C(F)(F)F)c1ccccc1-2 (stereo not shown) [compound 184] | > 1000
OC1(C(F)(F)F)c2ccccc2-c2c(Cl)cc(-c3ccncc3)cc21 (stereo not shown) [compound 185] | < 100
CN(c1ccccc1)c1ccc2c(c1)C(O)(C(F)(F)F)c1ccccc1-2 (stereo not shown) [compound 186] | > 1000
OC1(C(F)(F)F)c2ccccc2-c2ccc(Oc3ccccc3)cc21 (stereo not shown) [compound 187] | > 1000
O=C(O)c1ccc(-c2ccc3c(c2)C(O)(C(F)(F)F)c2ccccc2-3)cc1 (stereo not shown) [compound 188] | 100 to 1000
OCc1ccccc1-c1ccc2c(c1)C(O)(C(F)(F)F)c1ccccc1-2 (stereo not shown) [compound 189] | > 1000
CC(=O)Nc1ccccc1-c1ccc2c(c1)C(O)(C(F)(F)F)c1ccccc1-2 (stereo not shown) [compound 190] | > 1000
CNC(=O)c1ccc(-c2ccc3c(c2)C(O)(C(F)(F)F)c2ccccc2-3)cc1 (stereo not shown) [compound 191] | 100 to 1000
CN(C)C(=O)c1ccc(-c2ccc3c(c2)C(O)(C(F)(F)F)c2ccccc2-3)cc1 (stereo not shown) [compound 192] | 100 to 1000
Nc1ccc(-c2ccc3c(c2)C(O)(C(F)(F)F)c2ccccc2-3)cc1 (stereo not shown) [compound 193] | 100 to 1000
OCc1ccc(-c2ccc3c(c2)C(O)(C(F)(F)F)c2ccccc2-3)cc1 (stereo not shown) [compound 194] | 100 to 1000
O=C(c1ccc2c(c1)C(O)(C(F)(F)F)c1ccccc1-2)N1CCCC1CO (stereo not shown) [compound 195] | > 1000
Cc1cnc2c(c1)C(O)(C(F)(F)F)c1ccccc1-2 (stereo not shown) [compound 196] | 100 to 1000
CC(=O)Nc1ccc(-c2ccc3c(c2)C(O)(C(F)(F)F)c2ccccc2-3)cc1 (stereo not shown) [compound 197] | 100 to 1000
Cc1cc(-c2ccc3c(c2)C(O)(C(F)(F)F)c2ccccc2-3)ccn1 (stereo not shown) [compound 198] | 100 to 1000
NC(=O)c1ccc(-c2ccc3c(c2)C(O)(C(F)(F)F)c2ccccc2-3)cc1 (stereo not shown) [compound 199] | 100 to 1000
CCN(CC)C(=O)C1CN(C(=O)c2ccc3c(c2)C(O)(C(F)(F)F)c2ccccc2-3)C1 (stereo not shown) [compound 200] | 100 to 1000
O=C(c1ccc2c(c1)C(O)(C(F)(F)F)c1ccccc1-2)N1CC(C(=O)N2CCCC2)C1 (stereo not shown) [compound 201] | 100 to 1000

Same assay, conditions: read-out: PDHK inhibitory activity IC50

SMILES | IC50 [nM]
OC1(C(F)(F)F)c2ccccc2-c2ccc(-c3ccccc3Cl)cc21 (stereo not shown) [compound 150] | 6840
Cc1ccccc1-c1ccc2c(c1)C(O)(C(F)(F)F)c1ccccc1-2 (stereo not shown) [compound 151] | 5210
COC(=O)c1cccc(-c2ccc3c(c2)C(O)(C(F)(F)F)c2ccccc2-3)c1 (stereo not shown) [compound 154] | 309
O=C(O)c1cccc(-c2ccc3c(c2)C(O)(C(F)(F)F)c2ccccc2-3)c1 (stereo not shown) [compound 155] | 805
NC(=O)c1cccc(-c2ccc3c(c2)C(O)(C(F)(F)F)c2ccccc2-3)c1 (stereo not shown) [compound 156] | 464
CNC(=O)c1cccc(-c2ccc3c(c2)C(O)(C(F)(F)F)c2ccccc2-3)c1 (stereo not shown) [compound 157] | 358
CN(C)C(=O)c1cccc(-c2ccc3c(c2)C(O)(C(F)(F)F)c2ccccc2-3)c1 (stereo not shown) [compound 158] | 221
OC1(C(F)(F)F)c2ccccc2-c2c(Cl)cc(-c3ccccc3)cc21 (stereo not shown) [compound 159] | 318
OC1(C(F)(F)F)c2ccccc2-c2ccc(N3CCCC3)cc21 (stereo not shown) [compound 160] | 2540
OC1(C(F)(F)F)c2ccccc2-c2ccc(N3CCOCC3)cc21 (stereo not shown) [compound 161] | 2110
CN1CCN(c2ccc3c(c2)C(O)(C(F)(F)F)c2ccccc2-3)CC1 (stereo not shown) [compound 162] | 2890
CC(C)(C)OC(=O)N1CCN(c2ccc3c(c2)C(O)(C(F)(F)F)c2ccccc2-3)CC1 (stereo not shown) [compound 163] | 232
OC1(C(F)(F)F)c2ccccc2-c2ccc(N3CCNCC3)cc21 (stereo not shown) [compound 164] | 2750
CC(=O)N1CCN(c2ccc3c(c2)C(O)(C(F)(F)F)c2ccccc2-3)CC1 (stereo not shown) [compound 165] | 957
OC1(C(F)(F)F)c2ccccc2-c2ccc(Nc3ccccc3)cc21 (stereo not shown) [compound 166] | 5900
COC(=O)C1CCCN1C(=O)c1ccc2c(c1)C(O)(C(F)(F)F)c1ccccc1-2 (stereo not shown) [compound 167] | 1950
O=C(O)C1CCCN1C(=O)c1ccc2c(c1)C(O)(C(F)(F)F)c1ccccc1-2 (stereo not shown) [compound 168] | > 10000
OC1(C(F)(F)F)c2ccccc2-c2ccc(C3CCCCC3)cc21 (stereo not shown) [compound 169] | 7360
COc1ccccc1-c1ccc2c(c1)C(O)(C(F)(F)F)c1ccccc1-2 (stereo not shown) [compound 170] | 6740
OC1(C(F)(F)F)c2ccccc2-c2ccc(-c3ccc(F)cc3)cc21 (stereo not shown) [compound 171] | 951
COc1ccc(-c2ccc3c(c2)C(O)(C(F)(F)F)c2ccccc2-3)cc1 (stereo not shown) [compound 172] | 779
CCOC(=O)c1ccccc1-c1ccc2c(c1)C(O)(C(F)(F)F)c1ccccc1-2 (stereo not shown) [compound 173] | > 10000
NC(=O)c1cc(C(=O)N2CCC2)cc2c1-c1ccccc1C2(O)C(F)(F)F (stereo not shown) [compound 174] | 66
CCOC(=O)c1ccc(-c2ccc3c(c2)C(O)(C(F)(F)F)c2ccccc2-3)cc1 (stereo not shown) [compound 175] | 517
NC(=O)C1CCCN1C(=O)c1ccc2c(c1)C(O)(C(F)(F)F)c1ccccc1-2 (stereo not shown) [compound 176] | 8010

SMILES | IC50 [nM]
CNC(=O)C1CCCN1C(=O)c1ccc2c(c1)C(O)(C(F)(F)F)c1ccccc1-2 (stereo not shown) [compound 177] | 9190
CN(C)C(=O)C1CCCN1C(=O)c1ccc2c(c1)C(O)(C(F)(F)F)c1ccccc1-2 (stereo not shown) [compound 178] | > 10000
OC1(C(F)(F)F)c2ccccc2-c2ccc(-c3ccc(Cl)cc3)cc21 (stereo not shown) [compound 179] | 1340
O=C(O)c1ccccc1-c1ccc2c(c1)C(O)(C(F)(F)F)c1ccccc1-2 (stereo not shown) [compound 180] | > 10000
Cc1ccc(-c2ccc3c(c2)C(O)(C(F)(F)F)c2ccccc2-3)cc1 (stereo not shown) [compound 181] | 1510
NC(=O)c1ccccc1-c1ccc2c(c1)C(O)(C(F)(F)F)c1ccccc1-2 (stereo not shown) [compound 182] | > 10000
CNC(=O)c1ccccc1-c1ccc2c(c1)C(O)(C(F)(F)F)c1ccccc1-2 (stereo not shown) [compound 183] | > 10000
CN(C)C(=O)c1ccccc1-c1ccc2c(c1)C(O)(C(F)(F)F)c1ccccc1-2 (stereo not shown) [compound 184] | > 10000
OC1(C(F)(F)F)c2ccccc2-c2c(Cl)cc(-c3ccncc3)cc21 (stereo not shown) [compound 185] | 53
CN(c1ccccc1)c1ccc2c(c1)C(O)(C(F)(F)F)c1ccccc1-2 (stereo not shown) [compound 186] | 5910
OC1(C(F)(F)F)c2ccccc2-c2ccc(Oc3ccccc3)cc21 (stereo not shown) [compound 187] | 2480
O=C(O)c1ccc(-c2ccc3c(c2)C(O)(C(F)(F)F)c2ccccc2-3)cc1 (stereo not shown) [compound 188] | 383
OCc1ccccc1-c1ccc2c(c1)C(O)(C(F)(F)F)c1ccccc1-2 (stereo not shown) [compound 189] | 6000
CC(=O)Nc1ccccc1-c1ccc2c(c1)C(O)(C(F)(F)F)c1ccccc1-2 (stereo not shown) [compound 190] | > 10000
CNC(=O)c1ccc(-c2ccc3c(c2)C(O)(C(F)(F)F)c2ccccc2-3)cc1 (stereo not shown) [compound 191] | 216
CN(C)C(=O)c1ccc(-c2ccc3c(c2)C(O)(C(F)(F)F)c2ccccc2-3)cc1 (stereo not shown) [compound 192] | 182
Nc1ccc(-c2ccc3c(c2)C(O)(C(F)(F)F)c2ccccc2-3)cc1 (stereo not shown) [compound 193] | 560
OCc1ccc(-c2ccc3c(c2)C(O)(C(F)(F)F)c2ccccc2-3)cc1 (stereo not shown) [compound 194] | 368
O=C(c1ccc2c(c1)C(O)(C(F)(F)F)c1ccccc1-2)N1CCCC1CO (stereo not shown) [compound 195] | 5480
Cc1cnc2c(c1)C(O)(C(F)(F)F)c1ccccc1-2 (stereo not shown) [compound 196] | 475
CC(=O)Nc1ccc(-c2ccc3c(c2)C(O)(C(F)(F)F)c2ccccc2-3)cc1 (stereo not shown) [compound 197] | 298
Cc1cc(-c2ccc3c(c2)C(O)(C(F)(F)F)c2ccccc2-3)ccn1 (stereo not shown) [compound 198] | 126
NC(=O)c1ccc(-c2ccc3c(c2)C(O)(C(F)(F)F)c2ccccc2-3)cc1 (stereo not shown) [compound 199] | 182
CCN(CC)C(=O)C1CN(C(=O)c2ccc3c(c2)C(O)(C(F)(F)F)c2ccccc2-3)C1 (stereo not shown) [compound 200] | 236
O=C(c1ccc2c(c1)C(O)(C(F)(F)F)c1ccccc1-2)N1CC(C(=O)N2CCCC2)C1 (stereo not shown) [compound 201] | 162
